# PMC7144234, “Antiproliferative chromone derivatives induce K562 cell death through endogenous and exogenous pathways” (Journal of Enzyme Inhibition and Medicinal Chemistry, 2020)
# Tests used:
# [1] = test system: MCF-7; experiment: MTT antiproliferative assay, MCF-7; format: cell-based, human; conditions: breast carcinoma MCF-7
# Experimental: (§1) The colorimetric MTT (3-(4,5-dimethylthiazol-2-yl)-2,5-diphenyltetrazolium bromide) assay was used to measure the cell viability of all of the above cell lines following treatment with target hybrids. Exponentially growing cells were added into 96-well plates at a concentration of 2000–4000 cells per well. Following attachment the cells were treated with varying concentrations (64, 16, 4, 1, 0.25, 0.0625 and 0.015625 µM) of target compounds in media and were kept for incubation for 72 h. MTT (20 µL, 5 mg/mL in PBS) was added to each well and the cells were incubated for another 3 h at 37 °C. Then the medium was removed, followed by the addition of 150 µL DMSO for each well. After that, the absorbance (OD) data of each well at 570 nm wavelength were measured by a Microplate Reader (BIO-RAD), and half inhibition rates (IC50) were calculated[59]^,[60].
# [2] = test system: B16; experiment: MTT antiproliferative assay, B16; format: cell-based; conditions: 72 h, melanoma B16
# Experimental: as §1
# [3] = test system: HCT-116; experiment: MTT antiproliferative assay, HCT-116; format: cell-based, human; conditions: 72 h, colorectal carcinoma HCT-116
# Experimental: as §1
# [4] = test system: HepG2; experiment: MTT antiproliferative assay, HepG2; format: cell-based, human; conditions: 72 h, hepatoma HepG2
# Experimental: as §1
# [5] = test system: K562; experiment: MTT antiproliferative assay, K562; format: cell-based, human; conditions: 72 h, chronic myeloid leukaemia K562
# Experimental: as §1
# [6] = test system: L-02; experiment: MTT assay, normal hepatic L-02 cell line; format: cell-based; conditions: human normal hepatic L-02 cell line
# Experimental: as §1
# [7] = test system: PBMC; experiment: MTT assay, peripheral blood mononuclear cells; format: cell-based, human; conditions: 72 h
# Experimental: as §1
Compound,IC50 ([1]; 72 h),IC50 [2],IC50 [3],IC50 [4],IC50 [5],IC50 ([6]; 72 h),IC50 [7],"IC50 ([1]; Homo sapiens, MCF7, 72 h)",IC50 ([3]; Homo sapiens),IC50 ([4]; Homo sapiens),IC50 ([5]; Homo sapiens),"IC50 ([6]; L02, 72 h)","IC50 ([7]; Homo sapiens, PBMC)"
"2-((1-(6-Methyl-4-oxo-4H-chromene-3-carboxamido)propan-2-yl)oxy)-3-(phenylsulfonyl)-1,2,5-oxadiazole 2-oxide [14a]",> 50 µM,27.9 ± 1.23 µM,29.6 ± 1.48 µM,19.9 ± 1.31 µM,13.6 ± 0.85 µM,> 50 µM,> 50 µM,–,–,–,–,–,–
"4-(2-(4-(3-Carboxy-6-methyl-4-oxo-4H-chromen-2-yl)piperazin-1-yl)ethoxy)-3-(phenlsulfonyl)-1,2,5-oxadiazole 2-oxide [14d]",13.8 ± 0.49 µM,11.7 ± 0.52 µM,7.87 ± 0.32 µM,5.38 ± 0.19 µM,2.75 ± 0.17 µM,28.9 ± 1.43 µM,> 50 µM,–,–,–,–,–,–
"4-(2-(6-Methoxy-4-oxo-4H-chromene-3-carboxamido)ethoxy)-3-(phenylsulfonyl)-1,2,5-oxadiazole 2-oxide [13a]",22.1 ± 1.38 µM,16.8 ± 0.74 µM,13.2 ± 0.53 µM,10.6 ± 0.72 µM,5.89 ± 0.26 µM,> 50 µM,> 50 µM,–,–,–,–,–,–
"4-(2-((3-Carboxy-6-methoxy-4-oxo-4H-chromen-2-yl)amino)ethoxy)-3-(phenylsulfonyl)-1,2,5-oxadiazole 2-oxide [13b]",24.8 ± 1.28 µM,26.8 ± 1.22 µM,26.9 ± 1.4 µM,22.6 ± 1.39 µM,13.6 ± 0.76 µM,> 50 µM,> 50 µM,–,–,–,–,–,–
"4-(2-((3-Carboxy-6-methyl-4-oxo-4H-chromen-2-yl)amino)ethoxy)-3-(phenylsulfonyl)-1,2,5-oxadiazole 2-oxide [12b]",26.6 ± 1.6 µM,31.4 ± 1.34 µM,26.9 ± 1.61 µM,21.3 ± 1.58 µM,12.5 ± 1.03 µM,> 50 µM,> 50 µM,–,–,–,–,–,–
"4-(3-(6-Methyl-4-oxo-4H-chromene-3-carboxamido)propoxy)-3-(phenylsulfonyl)-1,2,5-oxadiazole 2-oxide [12c]",> 50 µM,26.9 ± 1.08 µM,25.4 ± 1.76 µM,21.5 ± 1.23 µM,12.5 ± 0.77 µM,> 50 µM,> 50 µM,–,–,–,–,–,–
"4-(3-((3-Carboxy-6-methoxy-4-oxo-4H-chromen-2-yl)amino)propoxy)-3-(phenylsulfonyl)-1,2,5-oxadiazole 2-oxide [13d]",> 50 µM,> 50 µM,> 50 µM,> 50 µM,> 50 µM,> 50 µM,> 50 µM,–,–,–,–,–,–
"4-(3-((3-Carboxy-6-methyl-4-oxo-4H-chromen-2-yl)amino)propoxy)-3-(phenylsulfonyl)-1,2,5-oxadiazole 2-oxide [12d]",15.9 ± 0.66 µM,9.96 ± 0.67 µM,8.64 ± 0.58 µM,7.91 ± 0.4 µM,4.94 ± 0.25 µM,33.6 ± 2.95 µM,> 50 µM,–,–,–,–,–,–
"4-((1-((3-Carboxy-6-methoxy-4-oxo-4H-chromen-2-yl)amino)propan-2-yl)oxy)-3-(phenylsulfonyl)-1,2,5-oxadiazole 2-oxide [15b]",> 50 µM,> 50 µM,> 50 µM,> 50 µM,> 50 µM,> 50 µM,> 50 µM,–,–,–,–,–,–
"4-((1-((3-Carboxy-6-methyl-4-oxo-4H-chromen-2-yl)amino)propan-2-yl)oxy)-3-(phenylsulfonyl)-1,2,5-oxadiazole 2-oxide [14b]",> 50 µM,> 50 µM,> 50 µM,> 50 µM,> 50 µM,> 50 µM,> 50 µM,–,–,–,–,–,–
"O=c1[nH]cc(F)c(=O)[nH]1 [5-Fu, fluorouracil, reference compound]",–,12.6 ± 1.06 µM,–,–,–,–,–,26.7 ± 1.92 µM,6.86 ± 0.37 µM,32.6 ± 1.98 µM,3.94 ± 0.17 µM,> 50 µM,> 50 µM
"NCCOc1no[n+]([O-])c1S(=O)(=O)c1ccccc1 [5a, 4-(2-aminoethoxy)-3-(phenylsulfonyl)-1,2,5-oxadiazole-2-oxide]",–,27.9 ± 1.23 µM,–,–,–,–,–,> 50 µM,29.9 ± 1.47 µM,21.8 ± 1.35 µM,18.9 ± 0.73 µM,> 50 µM,> 50 µM
"NCCCOc1no[n+]([O-])c1S(=O)(=O)c1ccccc1 [5b, 4-(3-aminopropoxy)-3-(phenylsulfonyl)-1,2,5-oxadiazole-2-oxide]",–,22.9 ± 1.46 µM,–,–,–,–,–,> 50 µM,18.9 ± 1.67 µM,17.8 ± 1.43 µM,20.3 ± 1.88 µM,> 50 µM,> 50 µM
"CC(CN)Oc1no[n+]([O-])c1S(=O)(=O)c1ccccc1 (stereo not shown) [5c, 4-((1-aminopropan-2-yl)oxy)-3-(phenylsulfonyl)-1,2,5-oxadiazole-2-oxide]",–,> 50 µM,–,–,–,–,–,> 50 µM,> 50 µM,> 50 µM,> 50 µM,> 50 µM,> 50 µM
"O=S(=O)(c1ccccc1)c1c(OCCN2CCNCC2)no[n+]1[O-] [5d, 3-(phenyl-sulfonyl)-4-(2-(piperazin-1-yl)ethoxy)-1,2,5-oxadiazole-2-oxide]",–,> 50 µM,–,–,–,–,–,> 50 µM,> 50 µM,> 50 µM,> 50 µM,> 50 µM,> 50 µM
"Cc1ccc2occ(C(=O)NCCOc3no[n+]([O-])c3S(=O)(=O)c3ccccc3)c(=O)c2c1 [12a, (2-(6-Methyl-4-oxo-4H-chromene-3-carboxamido)ethoxy)-3-(phenylsulfonyl)-1,2,5-oxadiazole 2-oxide]",–,> 50 µM,–,–,–,–,–,> 50 µM,> 50 µM,> 50 µM,> 50 µM,> 50 µM,> 50 µM
"COc1ccc2occ(C(=O)NCCCOc3no[n+]([O-])c3S(=O)(=O)c3ccccc3)c(=O)c2c1 [13c, 4-(3-(6-Methoxy-4-oxo-4H-chromene-3-carboxamido)propoxy)-3-(phenylsulfonyl)-1,2,5-oxadiazole 2-oxide]",–,> 50 µM,–,–,–,–,–,> 50 µM,> 50 µM,> 50 µM,> 50 µM,> 50 µM,> 50 µM
"Cc1ccc2occ(C(=O)N3CCN(CCOc4no[n+]([O-])c4S(=O)(=O)c4ccccc4)CC3)c(=O)c2c1 [14c, 4-(2-(4-(6-Methyl-4-oxo-4H-chromene-3-carbonyl)piperazin-1-yl)ethoxy)-3-(phenylsulfonyl)-1,2,5-oxadiazole 2-oxide]",–,10.6 ± 0.53 µM,–,–,–,–,–,12.8 ± 1.46 µM,7.93 ± 0.44 µM,5.67 ± 0.42 µM,2.98 ± 0.14 µM,41.3 ± 2.58 µM,> 50 µM
"COc1ccc2occ(C(=O)N3CCN(CCOc4no[n+]([O-])c4S(=O)(=O)c4ccccc4)CC3)c(=O)c2c1 [15c, 4-(2-(4-(6-Methoxy-4-oxo-4H-chromene-3-carbonyl)piperazin-1-yl)ethoxy)-3-(phenylsulfonyl)-1,2,5-oxadiazole 2-oxide]",–,23.5 ± 1.61 µM,–,–,–,–,–,37.6 ± 2.24 µM,22.4 ± 1.72 µM,25.6 ± 1.57 µM,8.93 ± 0.36 µM,> 50 µM,> 50 µM
"COc1ccc2oc(N3CCN(CCOc4no[n+]([O-])c4S(=O)(=O)c4ccccc4)CC3)c(C(=O)O)c(=O)c2c1 [15d, 4-(2-(4-(3-Carboxy-6-methoxy-4-oxo-4H-chromen-2-yl)piperazin-1-yl)ethoxy)-3-(phenylsulfonyl)-1,2,5-oxadiazole 2-oxide]",–,35 ± 1.25 µM,–,–,–,–,–,16.9 ± 1.29 µM,12.9 ± 1.02 µM,9.56 ± 2.37 µM,4.07 ± 0.39 µM,> 50 µM,> 50 µM
Cc1ccc2occ(C(=O)O)c(=O)c2c1 [compound 10],–,> 50 µM,–,–,–,–,–,> 50 µM,> 50 µM,> 50 µM,> 50 µM,> 50 µM,> 50 µM
COc1ccc2occ(C(=O)O)c(=O)c2c1 [compound 11],–,> 50 µM,–,–,–,–,–,> 50 µM,> 50 µM,> 50 µM,> 50 µM,> 50 µM,> 50 µM
